From ChEMBL document CHEMBL1201862, “PubChem BioAssay data set” (2004)
Active and inactive are the calls of the source.

What was measured:
cells [1] = test: cells
[2] = viability of uninfected HEp-2 cells – cell-based, HTS, cytotoxicity control for RSV inhibitor project, dose response (AID 2410); assay type: functional; details: human respiratory syncytial virus
[3] = molecular target: Disintegrin and metalloproteinase domain-containing protein 17 (Homo sapiens, UniProt P78536); test: exosite inhibitors of ADAM17, dose response, biochemical (AID 743260)
Disintegrin and metalloproteinase domain-containing protein 17, sequence (P78536 whole entry, the tested form may be a part): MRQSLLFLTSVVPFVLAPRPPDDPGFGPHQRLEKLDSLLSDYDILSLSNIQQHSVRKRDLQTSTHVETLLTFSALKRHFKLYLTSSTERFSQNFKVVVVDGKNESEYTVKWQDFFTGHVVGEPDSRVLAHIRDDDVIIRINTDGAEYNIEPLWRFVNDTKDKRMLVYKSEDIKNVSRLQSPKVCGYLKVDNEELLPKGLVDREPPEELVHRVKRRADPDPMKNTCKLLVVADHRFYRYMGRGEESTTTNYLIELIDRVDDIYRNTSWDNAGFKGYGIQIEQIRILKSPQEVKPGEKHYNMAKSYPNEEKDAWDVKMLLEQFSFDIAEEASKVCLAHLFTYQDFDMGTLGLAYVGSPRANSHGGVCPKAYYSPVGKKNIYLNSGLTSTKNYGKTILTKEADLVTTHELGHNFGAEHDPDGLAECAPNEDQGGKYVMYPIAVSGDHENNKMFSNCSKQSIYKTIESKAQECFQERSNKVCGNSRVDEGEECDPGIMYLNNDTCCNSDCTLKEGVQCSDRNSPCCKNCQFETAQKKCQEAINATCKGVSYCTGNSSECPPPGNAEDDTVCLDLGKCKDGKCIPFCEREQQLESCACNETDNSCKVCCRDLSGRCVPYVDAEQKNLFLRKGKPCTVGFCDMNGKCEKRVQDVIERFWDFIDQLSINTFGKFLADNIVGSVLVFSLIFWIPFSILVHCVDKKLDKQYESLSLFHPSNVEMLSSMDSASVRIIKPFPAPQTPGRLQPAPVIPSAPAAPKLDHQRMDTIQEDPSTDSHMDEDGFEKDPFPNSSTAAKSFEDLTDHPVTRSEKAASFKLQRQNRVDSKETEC

[4] = inhibition of ADAM10 peptide cleavage – biochemical, FRET peptide substrate, recombinant human ADAM10, selectivity assay for ADAM17 exosite inhibitor project, dose response (AID 743259);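 note: ADAM10 enzyme cleaving a FRET peptide substrate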
Aminopeptidase N = molecular target: T1, Aminopeptidase N (Plasmodium falciparum FcB1/Columbia, UniProt O96935); test: malaria alanyl aminopeptidase activity blockers – biochemical, fluorogenic H-Leu-NHMec substrate, 1536-well (AID 1445); design: species or system Plasmodium falciparum 3D7, 3D7
T1 sequence (O96935 whole entry): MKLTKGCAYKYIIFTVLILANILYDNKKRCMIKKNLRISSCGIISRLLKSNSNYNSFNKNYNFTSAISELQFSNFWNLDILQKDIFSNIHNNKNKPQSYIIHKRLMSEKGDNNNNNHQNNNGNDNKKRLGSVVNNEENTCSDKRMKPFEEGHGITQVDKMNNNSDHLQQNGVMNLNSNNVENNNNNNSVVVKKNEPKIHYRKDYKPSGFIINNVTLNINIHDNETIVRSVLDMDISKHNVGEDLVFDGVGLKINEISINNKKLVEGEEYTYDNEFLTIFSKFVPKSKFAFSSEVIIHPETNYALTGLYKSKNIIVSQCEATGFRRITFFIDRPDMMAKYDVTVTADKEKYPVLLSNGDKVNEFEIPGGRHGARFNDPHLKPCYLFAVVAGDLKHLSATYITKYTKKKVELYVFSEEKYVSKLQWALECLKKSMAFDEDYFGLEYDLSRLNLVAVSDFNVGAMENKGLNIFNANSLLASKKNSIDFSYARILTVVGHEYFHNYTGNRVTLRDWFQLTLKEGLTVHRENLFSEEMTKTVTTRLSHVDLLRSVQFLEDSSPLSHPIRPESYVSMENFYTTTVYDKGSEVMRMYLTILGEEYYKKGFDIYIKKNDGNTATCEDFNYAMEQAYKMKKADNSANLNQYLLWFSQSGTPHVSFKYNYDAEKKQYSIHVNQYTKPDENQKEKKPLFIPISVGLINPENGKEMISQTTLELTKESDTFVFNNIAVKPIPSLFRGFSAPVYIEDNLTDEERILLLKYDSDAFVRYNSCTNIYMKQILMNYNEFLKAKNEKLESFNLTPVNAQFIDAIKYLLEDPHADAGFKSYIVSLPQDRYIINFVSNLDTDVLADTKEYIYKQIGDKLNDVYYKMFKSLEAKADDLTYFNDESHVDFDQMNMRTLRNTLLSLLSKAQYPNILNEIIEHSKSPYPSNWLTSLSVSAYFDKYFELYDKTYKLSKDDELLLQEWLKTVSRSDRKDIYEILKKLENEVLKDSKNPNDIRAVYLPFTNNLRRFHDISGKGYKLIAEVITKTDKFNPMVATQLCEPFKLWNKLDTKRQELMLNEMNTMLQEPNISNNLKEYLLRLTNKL

Nonstructural protein 1 = Nonstructural protein 1 (Influenza A virus, UniProt Q194T2); assay type: functional, Influenza A virus (A/California/07/2009(H1N1))
Nonstructural protein 1, sequence (Q194T2 whole entry): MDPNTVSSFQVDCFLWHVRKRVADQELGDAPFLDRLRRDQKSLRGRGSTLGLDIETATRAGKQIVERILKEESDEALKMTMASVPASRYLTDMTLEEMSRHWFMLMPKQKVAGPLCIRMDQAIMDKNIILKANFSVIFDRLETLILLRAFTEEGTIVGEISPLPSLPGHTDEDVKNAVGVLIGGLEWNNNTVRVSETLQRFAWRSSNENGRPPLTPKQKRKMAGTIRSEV

[5] = molecular target: T2, Heat shock factor protein 1 (Mus musculus, UniProt P38532); test: enhancement of HSF1-driven luciferase signal – cell-based, NIH3T3, luminescence, dose retest, confirmation (AID 435004); assay type: functional;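 note: stress induced by proteasome inhibitor MG132 added 30 min after compound; luciferase reporter driven by HSF1 response element in NIH3T3 cells; actives raise luminescence as potentiators of the MG132 stress response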
T2 sequence (P38532 whole entry): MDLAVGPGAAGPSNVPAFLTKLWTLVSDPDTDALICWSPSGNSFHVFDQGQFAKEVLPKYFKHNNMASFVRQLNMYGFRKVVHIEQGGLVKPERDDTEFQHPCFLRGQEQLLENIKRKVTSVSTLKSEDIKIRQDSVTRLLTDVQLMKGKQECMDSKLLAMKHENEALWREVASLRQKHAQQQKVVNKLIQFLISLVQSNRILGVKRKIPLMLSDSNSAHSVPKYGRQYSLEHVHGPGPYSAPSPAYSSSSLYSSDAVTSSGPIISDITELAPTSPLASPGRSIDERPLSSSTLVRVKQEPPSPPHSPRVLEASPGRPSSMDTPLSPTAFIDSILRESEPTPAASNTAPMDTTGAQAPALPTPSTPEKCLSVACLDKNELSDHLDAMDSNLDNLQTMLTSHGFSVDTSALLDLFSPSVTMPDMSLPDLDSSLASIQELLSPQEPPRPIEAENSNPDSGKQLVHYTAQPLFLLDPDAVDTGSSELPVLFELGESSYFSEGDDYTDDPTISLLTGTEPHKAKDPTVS

cells [6] = assay type: functional, cell-based
cells [7] = assay type: functional
[8] = Luminescence Cell-Based Dose Response HTS to Identify Activators of Luciferase Translation or Activity in H4 […] Cells. [Related pubchem assays: 1829 (Project Summary), 1814 (Primary HTS)]; assay type: functional
[9] = Luminescence Cell-Based Dose Confirmation HTS to Identify Activators of 5'UTR Stem-Loop Driven Alpha-Synuclein mRNA Translation in H4 Neuroglioblastoma Cells. [Related pubchem assays: 1829 (Project Summary), 1814 (Primary HTS)]; assay type: functional
cells [10] = assay type: functional, cell-based; remark: listed apart in the source
[11] = THP-1 cell cytotoxicity, dose response, cytotoxicity control for non-replicating M. tuberculosis project (AID 489025); assay type: functional
H4 = test: Luminescence Cell-Based Dose Response HTS to Identify Activators of 5'UTR Stem-Loop Driven Prion Protein mRNA Translation in H4 Neuroglioblastoma Cells. [Related pubchem assays: 1829 (Project Summary), 1814 (Primary HTS)]; assay type: functional; details: Homo sapiens
[12] = HIV-1 AD8 envelope cell-cell fusion blockers – cherry-pick, dose response (AID 652062); assay type: functional, cell-based;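 note: luciferase signal from cell-cell fusion driven by HIV-1 clade B AD8 Env; potency is for inhibitors of fusion seen as a drop in luminescence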
[13] = blockers of HIV-1 ZM109 envelope-driven cell-cell fusion – HeLa effector, CEM target cells, luciferase, cherry-pick, dose response (AID 652058); assay type: functional, cell-based;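 note: luciferase signal from HIV-1 Env mediated cell-cell fusion of effector and target cells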
[14] = blockers of HIV-1 envelope-mediated cell-cell fusion – cherry-pick, dose response (AID 652057); assay type: functional, cell-based
[15] = reduced cellular PGC1a acetyl-lysine signal – cell-based, cherry-picked samples, dose response (AID 720514); assay type: functional;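 note: potency may reflect raised or lowered acetylation signal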
[16] = intracellular Trypanosoma cruzi inhibitors in host cells – cell-based, plate reader, cherry-pick samples, set 3, dose response (AID 651818); assay type: functional;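 note: compounds incubated with infected cells for about four days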
Protein RecA = molecular target: T3, Protein RecA (Mycobacterium tuberculosis, UniProt P9WHJ3); test: Fluorescence Cell-Free Homogeneous Dose Retest to Identify Inhibitors of RecA-Intein Splicing Activity. [Related pubchem assays (depositor defined):AID2097, AID2223, AID489010, AID492950]; assay type: functional
T3 sequence (P9WHJ3 whole entry): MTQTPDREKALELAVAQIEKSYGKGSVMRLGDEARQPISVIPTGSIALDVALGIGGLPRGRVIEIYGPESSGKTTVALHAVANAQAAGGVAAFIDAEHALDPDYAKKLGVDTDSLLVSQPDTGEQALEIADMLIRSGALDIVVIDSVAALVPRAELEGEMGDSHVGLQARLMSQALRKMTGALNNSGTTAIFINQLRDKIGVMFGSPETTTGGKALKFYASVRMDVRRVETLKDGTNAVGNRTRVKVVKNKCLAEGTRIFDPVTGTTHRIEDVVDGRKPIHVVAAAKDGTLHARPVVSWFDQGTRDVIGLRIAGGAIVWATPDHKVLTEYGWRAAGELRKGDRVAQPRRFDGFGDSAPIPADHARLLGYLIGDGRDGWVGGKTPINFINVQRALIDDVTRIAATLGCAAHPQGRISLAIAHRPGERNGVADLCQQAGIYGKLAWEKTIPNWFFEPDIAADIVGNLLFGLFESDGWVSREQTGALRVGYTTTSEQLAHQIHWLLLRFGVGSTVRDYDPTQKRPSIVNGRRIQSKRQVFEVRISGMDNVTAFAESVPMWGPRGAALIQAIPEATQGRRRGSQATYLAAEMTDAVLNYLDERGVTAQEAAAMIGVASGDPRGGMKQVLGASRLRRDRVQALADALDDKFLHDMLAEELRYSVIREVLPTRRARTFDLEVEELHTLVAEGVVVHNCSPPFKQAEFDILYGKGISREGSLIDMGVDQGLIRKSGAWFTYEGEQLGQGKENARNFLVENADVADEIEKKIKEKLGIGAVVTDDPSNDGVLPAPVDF

[17] = molecular target: T4, Replicative DNA helicase DnaB (Mycobacterium tuberculosis, UniProt P9WMR3); test: DnaB intein splicing inhibitors, dose response, biochemical, cell-free fluorescence (AID 449749); assay type: functional
T4 sequence (P9WMR3 whole entry): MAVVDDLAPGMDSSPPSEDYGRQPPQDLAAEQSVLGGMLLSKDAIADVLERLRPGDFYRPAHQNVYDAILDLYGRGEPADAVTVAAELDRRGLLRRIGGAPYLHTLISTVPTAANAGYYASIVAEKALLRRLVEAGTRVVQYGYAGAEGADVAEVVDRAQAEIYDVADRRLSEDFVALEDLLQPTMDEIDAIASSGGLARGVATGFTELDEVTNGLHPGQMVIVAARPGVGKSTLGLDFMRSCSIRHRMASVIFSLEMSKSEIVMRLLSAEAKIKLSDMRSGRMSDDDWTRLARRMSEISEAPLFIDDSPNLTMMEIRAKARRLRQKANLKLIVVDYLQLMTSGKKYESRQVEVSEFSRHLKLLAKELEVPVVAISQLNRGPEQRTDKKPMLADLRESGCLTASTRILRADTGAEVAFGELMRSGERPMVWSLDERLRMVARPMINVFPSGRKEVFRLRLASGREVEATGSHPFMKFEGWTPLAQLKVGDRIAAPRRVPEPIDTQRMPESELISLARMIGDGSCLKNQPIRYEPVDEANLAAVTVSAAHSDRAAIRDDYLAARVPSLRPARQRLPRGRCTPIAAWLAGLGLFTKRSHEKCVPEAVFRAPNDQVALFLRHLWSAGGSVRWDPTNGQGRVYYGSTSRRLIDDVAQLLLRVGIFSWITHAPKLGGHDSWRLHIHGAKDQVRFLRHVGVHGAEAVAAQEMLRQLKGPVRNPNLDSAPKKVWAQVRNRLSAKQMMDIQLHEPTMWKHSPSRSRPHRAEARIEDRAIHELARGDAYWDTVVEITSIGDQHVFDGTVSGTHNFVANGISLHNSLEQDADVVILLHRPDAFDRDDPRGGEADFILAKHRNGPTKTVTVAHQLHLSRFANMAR

Compound: CC(C)[C@H](NC(=O)N1CCn2c1nc1ccccc12)C(=O)NCc1ccccc1Cl
- IC50 (cells [1]): 35.8 µM (active)
- CC50 [2]: 46.3 µM (active)

Compound: COc1ccc(S(=O)(=O)NCC(c2ccco2)N2CCc3ccccc32)cc1 (stereo unspecified)
- IC50 [3]: > 69.5 µM (inactive)
- IC50 [4]: 38.4 µM (inactive)

Compound: Nc1cc(OC(=O)c2c(F)cccc2Cl)nn1S(=O)(=O)c1ccccc1
- IC50 [3]: > 69.5 µM (inactive)
- IC50 [4]: > 69.5 µM (inactive)

Compound: COc1ccc(C(=O)NNC(=O)CSc2nnc(-c3ccc(O)cc3)n2C)cc1
- IC50 (Aminopeptidase N): 56.8 µM (active)

Compound: COc1ccc(S(=O)(=O)NC2=NC(=O)/C(=C\c3ccco3)S2)cc1
- IC50 (Aminopeptidase N): 99.1 µM (active)

Compound: CCOc1ccc(CNc2ccc(N3CCN(Cc4ccccc4)CC3)cc2)cc1
- IC50 (Nonstructural protein 1): 49.6 µM (active)
- EC50 [5]: > 260 µM (inactive)

Compound: CC(=O)N1C(=O)/C(=C2\SC(=S)N(NS(=O)(=O)c3ccc(C)cc3)C2=O)c2ccccc21
- IC50 (Aminopeptidase N): 3.22 µM (active)

Compound: CCc1ccc(OCC(=O)Nc2ccncc2)c(Br)c1
- EC50 (cells [6]): > 350 µM (not active)
- IC50 (cells [7]): 38.1 µM (active)
- EC50 [8]: 17.4 µM (active)
- EC50 [9]: 13.9 µM (active)
- EC50 (cells [10]): > 350 µM (not active)
- CC50 [11]: > 40 µM (active)
- EC50 (H4): > 120 µM (not active)

Compound: O=C(C[C@@H]1CC[C@H]2[C@@H](COC[C@@H](O)CN2Cc2ccc(Oc3ccccc3)cc2)O1)N1CCN(c2ccccc2)CC1
- AC50 [12]: 4.07 µM (active)
- AC50 [13]: 20.4 µM (active)
- AC50 [14]: 22.3 µM (active)

Compound: C[C@H](C(=O)N(C)C[C@@H]1OCc2ccccc2-c2ccccc2C(=O)N([C@H](C)CO)C[C@@H]1C)c1ccccc1
- AC50 [12]: < 0.26 µM (active)
- AC50 [14]: < 0.26 µM (active)

Compound: COCCOc1ccc(C(F)(F)F)cc1NC(=O)CN1C(=O)NC2(CCCc3ccccc32)C1=O (stereo unspecified)
- AC50 [15]: 33.9 µM (active)

Compound: Cc1ccc2c(c1)[C@H]1[C@H](CO2)[C@H](c2ccccc2)[C@]2(C)C(=O)N(Cc3ccc(Cl)cc3)CC(=O)N12
- IC50 [3]: > 69.5 µM (inactive)
- IC50 [4]: > 69.5 µM (inactive)

Compound: Cc1cc(OCC(=O)NNC(=O)c2cnccn2)cc(C)c1Cl
- AC50 [15]: 29.6 µM (active)

Compound: Cc1ccc(-n2c(=O)c3sccc3n(Cc3cc(=O)n4ccccc4n3)c2=O)cc1F
- IC50 (cells [1]): 9.86 µM (active)

Compound: CC1(O)N(Cc2ccccc2)C(=O)OC12CCCCC2 (stereo unspecified)
- IC50 [3]: > 69.5 µM (inactive)
- IC50 [4]: > 69.5 µM (inactive)

Compound: COc1ccccc1NC(=O)N[C@@H]1C=C[C@H](CC(=O)N[C@H](C)c2ccccc2)O[C@H]1CO
- AC50 [12]: 6.98 µM (active)
- AC50 [13]: 7.16 µM (active)
- AC50 [14]: 8.31 µM (active)

Compound: Cc1cc(C)c(NC(=O)c2ccc(S(=O)(=O)N(C)C)cc2)c(C)n1
- AC50 [15]: 29.4 µM (active)

Compound: O=c1c2cc(Cl)ccc2oc2nc3n(c(=O)c12)CCCS3
- IC50 (cells [7]): 2.92 µM (active)
- CC50 [11]: > 40 µM (active)

Compound: C[C@@H]1CCCCO[C@@H](CN(C)Cc2ccc(C(F)(F)F)cc2)[C@@H](C)CN([C@H](C)CO)C(=O)c2cc(NC(=O)NC3CCCCC3)ccc2O1
- AC50 [16]: 6.76 µM (active)

Compound: Cc1ccc2c(c1)-c1c(ssc1=S)C(C)(C)N2C(=O)CSC1=NCCS1
- EC50 (Protein RecA): 9.8 µM (active)
- IC50 (Nonstructural protein 1): 24.9 µM (active)
- AC50 [17]: 28.3 µM (active)

Compound: C[C@@H]1CN([C@@H](C)CO)S(=O)(=O)c2ccc(-c3ccc(F)cc3)cc2O[C@H]1CN(C)C(=O)C1CCCCC1
- AC50 [15]: 17.1 µM (active)
